Measured values from ChEMBL document CHEMBL4017477, “Synthesis and evaluation of 4,6-disubstituted pyrimidines as CNS penetrant pan-muscarinic antagonists with a novel chemotype” (Bioorg Med Chem Lett, 2017).

Experiments:
[1] = molecular target: T1, Muscarinic acetylcholine receptor M3 (Homo sapiens, UniProt P20309); test: Antagonist activity at recombinant human M3 receptor expressed in CHO cells co-expressing Gqi5 by calcium mobilization assay; assay type: functional, cell-based
Target sequence in this assay (P20309 whole entry): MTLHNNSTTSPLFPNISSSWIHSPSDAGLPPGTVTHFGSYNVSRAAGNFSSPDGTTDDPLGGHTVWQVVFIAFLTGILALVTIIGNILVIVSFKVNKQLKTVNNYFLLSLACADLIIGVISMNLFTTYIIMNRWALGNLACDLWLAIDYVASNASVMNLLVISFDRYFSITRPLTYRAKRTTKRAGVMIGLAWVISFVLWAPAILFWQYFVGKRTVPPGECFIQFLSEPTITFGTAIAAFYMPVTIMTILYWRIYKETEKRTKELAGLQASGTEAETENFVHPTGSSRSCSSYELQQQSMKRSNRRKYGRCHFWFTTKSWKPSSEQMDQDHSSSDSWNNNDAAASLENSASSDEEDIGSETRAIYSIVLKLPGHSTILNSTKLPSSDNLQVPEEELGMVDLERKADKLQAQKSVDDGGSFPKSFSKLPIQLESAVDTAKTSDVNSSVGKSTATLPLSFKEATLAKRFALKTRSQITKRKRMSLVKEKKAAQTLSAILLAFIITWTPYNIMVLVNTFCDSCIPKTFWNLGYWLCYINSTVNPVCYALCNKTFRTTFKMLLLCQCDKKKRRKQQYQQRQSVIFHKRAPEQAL

Plasma [2] = test: Unbound plasma concentration in human; assay type: ADME, cell-free
[3] = molecular target: T2, Muscarinic acetylcholine receptor M5 (Homo sapiens, UniProt P08912); test: Antagonist activity at recombinant human M5 receptor expressed in CHO cells co-expressing Gqi5 by calcium mobilization assay; assay type: functional, cell-based
T2 sequence (P08912 whole entry): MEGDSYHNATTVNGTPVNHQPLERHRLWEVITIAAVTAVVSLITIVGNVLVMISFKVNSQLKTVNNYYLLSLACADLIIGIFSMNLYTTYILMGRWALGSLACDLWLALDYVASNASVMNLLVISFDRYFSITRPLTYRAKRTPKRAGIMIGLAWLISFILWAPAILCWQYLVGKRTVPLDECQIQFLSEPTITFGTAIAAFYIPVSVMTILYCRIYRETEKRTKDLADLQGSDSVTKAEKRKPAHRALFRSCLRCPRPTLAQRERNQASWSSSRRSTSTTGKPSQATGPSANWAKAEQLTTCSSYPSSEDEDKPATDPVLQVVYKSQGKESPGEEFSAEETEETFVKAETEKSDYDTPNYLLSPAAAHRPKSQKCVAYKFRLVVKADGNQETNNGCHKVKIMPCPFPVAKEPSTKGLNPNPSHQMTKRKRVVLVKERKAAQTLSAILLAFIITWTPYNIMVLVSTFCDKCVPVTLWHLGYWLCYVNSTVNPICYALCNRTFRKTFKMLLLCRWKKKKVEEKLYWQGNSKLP

[4] = Brain to plasma partition coefficient, Kp of the compound in rat; assay type: ADME
[5] = molecular target: T3, Muscarinic acetylcholine receptor M4 (Homo sapiens, UniProt P08173); test: Antagonist activity at recombinant human M4 receptor expressed in CHO cells co-expressing Gqi5 by calcium mobilization assay; assay type: functional, cell-based
T3 sequence (P08173 whole entry): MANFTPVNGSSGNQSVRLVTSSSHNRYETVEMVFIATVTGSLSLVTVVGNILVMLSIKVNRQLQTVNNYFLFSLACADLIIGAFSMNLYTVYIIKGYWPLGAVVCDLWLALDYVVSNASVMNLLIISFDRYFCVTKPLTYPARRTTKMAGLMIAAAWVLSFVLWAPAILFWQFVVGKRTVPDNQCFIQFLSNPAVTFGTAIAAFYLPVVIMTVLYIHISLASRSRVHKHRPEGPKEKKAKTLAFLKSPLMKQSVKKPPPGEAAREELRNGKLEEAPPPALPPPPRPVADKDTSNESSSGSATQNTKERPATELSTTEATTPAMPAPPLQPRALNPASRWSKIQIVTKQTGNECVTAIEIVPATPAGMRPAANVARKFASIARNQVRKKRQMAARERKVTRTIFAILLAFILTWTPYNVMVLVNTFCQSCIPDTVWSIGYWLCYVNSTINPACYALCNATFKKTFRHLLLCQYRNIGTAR

[6] = Ratio of unbound brain to plasma concentration in rat; assay type: ADME
Plasma [7] = test: Unbound plasma concentration in rat; assay type: ADME, cell-free
[8] = molecular target: T4, Muscarinic acetylcholine receptor M4 (Homo sapiens) (UniProt P08173); test: Antagonist activity at recombinant human M4 receptor expressed in CHO cells co-expressing Gqi5 by calcium mobilization assay relative to acetylcholine; assay type: functional, cell-based
T4 sequence (whole entry): T3 sequence (P08173 whole entry)

[9] = molecular target: T5, Muscarinic acetylcholine receptor M4 (Rattus norvegicus, UniProt P08485); test: Antagonist activity at rat M4 receptor by calcium mobilization assay; assay type: functional
T5 sequence (P08485 whole entry): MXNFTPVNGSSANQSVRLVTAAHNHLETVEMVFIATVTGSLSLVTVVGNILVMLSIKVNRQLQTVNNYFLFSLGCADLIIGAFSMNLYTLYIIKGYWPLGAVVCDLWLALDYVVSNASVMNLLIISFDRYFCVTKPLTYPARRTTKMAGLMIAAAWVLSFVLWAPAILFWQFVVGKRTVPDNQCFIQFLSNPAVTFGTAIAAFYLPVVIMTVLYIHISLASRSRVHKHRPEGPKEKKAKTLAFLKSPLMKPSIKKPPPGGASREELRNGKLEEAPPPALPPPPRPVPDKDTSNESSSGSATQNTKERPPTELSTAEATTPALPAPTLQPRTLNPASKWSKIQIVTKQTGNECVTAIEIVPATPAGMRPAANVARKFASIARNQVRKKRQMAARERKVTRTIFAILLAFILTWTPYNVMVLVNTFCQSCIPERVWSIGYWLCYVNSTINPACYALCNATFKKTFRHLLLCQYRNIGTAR

[10] = molecular target: T6, Muscarinic acetylcholine receptor M2 (Homo sapiens, UniProt P08172); test: Antagonist activity at recombinant human M2 receptor expressed in CHO cells co-expressing Gqi5 by calcium mobilization assay; assay type: functional, cell-based
T6 sequence (P08172 whole entry): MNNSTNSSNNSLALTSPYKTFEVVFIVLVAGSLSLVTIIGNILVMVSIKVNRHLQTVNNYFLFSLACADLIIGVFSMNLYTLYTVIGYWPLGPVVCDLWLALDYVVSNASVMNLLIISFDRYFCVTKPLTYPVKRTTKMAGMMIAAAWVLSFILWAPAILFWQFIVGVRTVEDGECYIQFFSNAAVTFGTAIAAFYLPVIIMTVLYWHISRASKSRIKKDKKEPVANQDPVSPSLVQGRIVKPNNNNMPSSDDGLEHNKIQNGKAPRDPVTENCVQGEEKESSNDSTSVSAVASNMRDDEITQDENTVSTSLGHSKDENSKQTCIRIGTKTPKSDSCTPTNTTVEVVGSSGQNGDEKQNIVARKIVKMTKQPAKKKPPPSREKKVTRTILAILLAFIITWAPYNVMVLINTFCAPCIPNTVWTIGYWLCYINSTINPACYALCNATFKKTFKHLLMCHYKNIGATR

[11] = molecular target: T7, Muscarinic acetylcholine receptor M1 (Homo sapiens, UniProt P11229); test: Antagonist activity at recombinant human M1 receptor expressed in CHO cells co-expressing Gqi5 by calcium mobilization assay; assay type: functional, cell-based
T7 sequence (P11229 whole entry): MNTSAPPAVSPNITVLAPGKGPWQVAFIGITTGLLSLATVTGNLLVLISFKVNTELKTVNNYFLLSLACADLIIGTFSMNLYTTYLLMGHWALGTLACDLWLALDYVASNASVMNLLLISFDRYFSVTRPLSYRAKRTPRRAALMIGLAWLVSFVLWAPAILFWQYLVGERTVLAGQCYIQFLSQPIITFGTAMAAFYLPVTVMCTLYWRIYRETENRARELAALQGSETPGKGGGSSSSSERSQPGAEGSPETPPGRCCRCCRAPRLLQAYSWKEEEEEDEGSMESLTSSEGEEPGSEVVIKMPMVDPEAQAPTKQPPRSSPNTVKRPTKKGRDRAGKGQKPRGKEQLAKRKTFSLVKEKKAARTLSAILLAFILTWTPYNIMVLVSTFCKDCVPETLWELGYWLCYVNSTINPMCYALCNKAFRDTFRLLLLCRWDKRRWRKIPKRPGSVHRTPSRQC

Brain = test: Unbound brain concentration in rat; assay type: ADME, tissue-based; details: in vivo
[12] = molecular target: T8, Muscarinic acetylcholine receptor M4 (Rattus norvegicus) (UniProt P08485); test: Antagonist activity at rat M4 receptor by calcium mobilization assay relative to acetylcholine; assay type: functional
T8 sequence (whole entry): T5 sequence (P08485 whole entry)

[13] = molecular target: T1, Muscarinic acetylcholine receptor M3; test: Antagonist activity at recombinant human M3 receptor expressed in CHO cells co-expressing Gqi5 by calcium mobilization assay relative to acetylcholine; assay type: functional, cell-based
Target sequence in this assay (P20309 whole entry, looked up): as the sequence (P20309 whole entry) above

[14] = molecular target: T9, Muscarinic acetylcholine receptor M1 (Homo sapiens) (UniProt P11229); test: Antagonist activity at recombinant human M1 receptor expressed in CHO cells co-expressing Gqi5 by calcium mobilization assay relative to acetylcholine; assay type: functional, cell-based
T9 sequence (whole entry): T7 sequence (P11229 whole entry)

[15] = molecular target: T10, Muscarinic acetylcholine receptor M2 (Homo sapiens) (UniProt P08172); test: Antagonist activity at recombinant human M2 receptor expressed in CHO cells co-expressing Gqi5 by calcium mobilization assay relative to acetylcholine; assay type: functional, cell-based
T10 sequence (whole entry): T6 sequence (P08172 whole entry)

[16] = molecular target: T11, Muscarinic acetylcholine receptor M5 (Homo sapiens) (UniProt P08912); test: Antagonist activity at recombinant human M5 receptor expressed in CHO cells co-expressing Gqi5 by calcium mobilization assay relative to acetylcholine; assay type: functional, cell-based
T11 sequence (whole entry): T2 sequence (P08912 whole entry)

| Compound | IC50 ([5]; read-out: IC50) | IC50 ([5]; read-out: pIC50 (converted)) | Emin [8] | other results |
| --- | --- | --- | --- | --- |
| CCc1ccc(Oc2cc(N3CCC(C(=O)N4CCc5ccccc5C4)CC3)ncn2)cc1 | 380 nM | 347 nM | 5.3% | IC50 [1]: < 1500 nM; Fu (Plasma [2]): 0.001; IC50 [3]: < 1500 nM; Kp [4]: 1.45; K(p,uu,brain) ([6]; brain): 0.36; Fu (Plasma [7]): 0.004; IC50 ([9]; read-out: IC50): 590 nM; IC50 ([9]; read-out: pIC50 (converted)): 562 nM; IC50 [10]: < 1500 nM; IC50 [11]: < 1500 nM; Fu (Brain): 0.001; Emin [12]: 13.1% |
| O=C(C1CCN(c2cc(Oc3ccc(F)cc3F)ncn2)CC1)N1CCCc2ccccc2C1 | 1040 nM |  | 6% |  |
| CN(Cc1ccccc1)C(=O)C1CCN(c2cc(Oc3ccc(F)cc3F)ncn2)CC1 | > 10000 nM |  |  |  |
| O=C(C1CCN(c2cc(Oc3c(F)cccc3F)ncn2)CC1)N1CCc2ccccc2C1 |  |  | 7% |  |
| O=C(C1CCN(c2cc(Oc3ccc(Cl)cc3)ncn2)CC1)N1CCc2ccccc2C1 | 140 nM | 132 nM | 3% | Emin [13]: < 6%; Emin [14]: < 6%; IC50 [1]: 365 nM; IC50 [3]: 695 nM; Emin [15]: < 6%; IC50 [10]: 352 nM; IC50 [11]: 313 nM; Emin [16]: < 6% |
| O=C(C1CCN(c2cc(Oc3cccc(F)c3F)ncn2)CC1)N1CCc2ccccc2C1 | 190 nM | 170 nM | 3.1% |  |
| O=C(C1CCN(c2cc(Oc3ccccc3F)ncn2)CC1)N1CCc2ccccc2C1 | 130 nM | 123 nM | 3.2% | Emin [13]: < 6%; Emin [14]: < 6%; IC50 [1]: 404 nM; IC50 [3]: 732 nM; Kp ([4]; brain/plasma, read-out: Kp): 0.68; Kp uu ([6]; brain/plasma, read-out: K(p,uu,brain)): 0.75; Emin [15]: < 6%; IC50 [10]: 384 nM; IC50 [11]: 322 nM; Emin [16]: < 6% |
| O=C(NCc1ccccc1)C1CCN(c2cc(Oc3ccc(F)cc3F)ncn2)CC1 | > 10000 nM |  |  |  |
| O=C(C1CCN(c2cc(Oc3ccccc3)ncn2)CC1)N1CCc2ccccc2C1 | 650 nM | 617 nM | 2.7% |  |
| COc1ccc2c(c1)CN(C(=O)C1CCN(c3cc(Oc4ccc(F)cc4F)ncn3)CC1)CC2 | 2470 nM | 2400 nM | 11.8% |  |
| O=C(C1CCN(c2cc(Oc3ccc(F)cc3F)ncn2)CC1)N1CCc2cc(C(F)(F)F)ccc2C1 | > 10000 nM |  |  |  |
| O=C(C1CCN(c2cc(Oc3cc(F)ccc3F)ncn2)CC1)N1CCc2ccccc2C1 | 80 nM |  | 3.1% |  |
| O=C(C1CCN(c2cc(Oc3ccc4c(c3)OCO4)ncn2)CC1)N1CCc2ccccc2C1 | 510 nM |  | 4.1% |  |
| O=C(C1CCN(c2cc(Oc3ccc(F)cc3)ncn2)CC1)N1CCc2ccccc2C1 | 240 nM | 229 nM | 3.5% |  |
| O=C(C1CCN(c2cc(Oc3ccc(Cl)cc3F)ncn2)CC1)N1CCc2ccccc2C1 | 150 nM |  | 3.1% |  |
| O=C(C1CCN(c2cc(Oc3ccc(F)cc3F)ncn2)CC1)N1CCC2CCCCC2C1 (configuration not stated) | 410 nM |  | 5.1% |  |
| O=C(C1CCN(c2cc(Oc3cccc(F)c3)ncn2)CC1)N1CCc2ccccc2C1 | 310 nM |  | 3.2% |  |
| Cc1ccc(Oc2cc(N3CCC(C(=O)N4CCc5ccccc5C4)CC3)ncn2)cc1 | 310 nM |  | 3.3% |  |
| COc1ccc(Oc2cc(N3CCC(C(=O)N4CCc5ccccc5C4)CC3)ncn2)cc1 | 460 nM |  | 5.3% |  |
| O=C(C1CCN(c2cc(Oc3ccc(Cl)cc3Cl)ncn2)CC1)N1CCc2ccccc2C1 | 270 nM |  | 3% |  |
| COc1ccc2c(c1)CCN(C(=O)C1CCN(c3cc(Oc4ccc(F)cc4F)ncn3)CC1)C2 | 580 nM | 562 nM | 5.5% |  |
| O=C(C1CCN(c2cc(Oc3ccc4ccccc4c3)ncn2)CC1)N1CCc2ccccc2C1 |  |  | 6.8% |  |
